{"source": "PubChem BioAssay AID1259411", "about": "(Chemical Carcinogenesis Research Information System (CCRIS), 2018)", "test_system": "rodent carcinogenicity bioassays, tumor incidence", "test": "CCRIS carcinogenicity studies", "summary_of_the_method": "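NCI-built, expert-reviewed records of carcinogenicity and related test outcomes (mutagenicity, tumor promotion/inhibition) compiled from published and report sources, historical span 1985-2011, not updated.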", "note": "The source made the active and inactive calls. No rule for the calls is given here.", "data": [{"smiles": "O=NN1CCC[C@H]1c1cccnc1", "values": [{"measurement": "carcinogen call", "setting": "Species: HAMSTER, Route: SUBCUTANEOUS, Tumor Site: Type of Lesion: TRACHEA", "value": "active; positive"}, {"measurement": "carcinogen call", "setting": "Species: MINK, Strain/Sex: MALE, FEMALE, Route: SUBCUTANEOUS, Dose: 0, 11.9 MILLIMOLAR (TOTAL DOSE) GIVEN IN SUBDOSES 2/WK FOR 38 WK (STUDY DURATION: 185 WK), Tumor Site: Type of Lesion: NASAL CAVITY: TUMORS", "value": "active; positive"}, {"measurement": "carcinogen call", "setting": "Species: MOUSE, Route: INTRAPERITONEAL, Tumor Site: Type of Lesion: LUNG", "value": "active; positive"}, {"measurement": "carcinogen call", "setting": "Species: MOUSE, Strain/Sex: CFLP/FEMALE, Route: DERMAL, Dose: 0, 12.5, 50, 200 UG IN ACETONE 2 D/WK FOR 104 WK (STUDY DURATION: 24 MO), Dose: 0, 12.5, 50, 200 UG IN ACETONE 2 D/WK FOR 104 WK (STUDY DURATION: 24 MO)", "value": "inactive; negative"}, {"measurement": "carcinogen call", "setting": "Species: MOUSE, Strain/Sex: STRAIN-A/FEMALE, Route: INTRAPERITONEAL, Dose: 0, 40, 200 UMOL TOTAL DOSE ADMINISTERED IN SUBDOSES 3/WK FOR 7 WK (STUDY DURATION: 37 WK), Dose: 0, 40, 200 UMOL TOTAL DOSE ADMINISTERED IN SUBDOSES 3/WK FOR 7 WK (STUDY DURATION: 37 WK), Tumor Site: Type of Lesion: LUNG: TUMOR", "value": "active; positive"}, {"measurement": "carcinogen call", "setting": "Species: RAT, Route: ORAL, Tumor Site: Type of Lesion: ESOPHAGUS, NASAL CAVITY", "value": "active; positive"}, {"measurement": "carcinogen call", "setting": "Species: RAT, Strain/Sex: F344/FEMALE, Route: SUBCUTANEOUS, Dose: 0, 1, 3, 9 MMOL/KG BW (TOTAL DOSE) WITH SUBDOSES GIVEN 3/WK FOR 20 WK WITH A 2 WK INTERRUPTION AFTER 7 WK (STUDY DURATIO, Dose: 0, 1, 3, 9 MMOL/KG BW (TOTAL DOSE) WITH SUBDOSES GIVEN 3/WK FOR 20 WK WITH A 2 WK INTERRUPTION AFTER 7 WK (STUDY DURATIO, Tumor Site: Type of Lesion: NASAL CAVITY: TUMORS, ESOPHAGUS: BENIGN TUMORS", "value": "active; positive"}, {"measurement": "carcinogen call", "setting": "Species: RAT, Strain/Sex: F344/MALE, Route: SUBCUTANEOUS, Dose: 0, 1, 3, 9 MMOL/KG BW (TOTAL DOSE) WITH SUBDOSES GIVEN 3/WK FOR 20 WK WITH A 2 WK INTERRUPTION AFTER 7 WK (STUDY DURATIO, Dose: 0, 1, 3, 9 MMOL/KG BW (TOTAL DOSE) WITH SUBDOSES GIVEN 3/WK FOR 20 WK WITH A 2 WK INTERRUPTION AFTER 7 WK (STUDY DURATIO, Tumor Site: Type of Lesion: NASAL CAVITY: TUMORS, LUNG: TUMORS, ESOPHAGUS: BENIGN TUMORS, Tumor Site: Type of Lesion: NASAL CAVITY: TUMORS, LUNG: TUMORS, ESOPHAGUS: BENIGN TUMORS", "value": "active; positive"}]}, {"smiles": "Cc1c(N(C)CS(=O)(=O)O)c(=O)n(-c2ccccc2)n1C", "values": [{"measurement": "carcinogen call", "setting": "Species: MOUSE, Strain/Sex: B6C3F1/FEMALE, Route: ORAL, Dose: 0, 0.25, 1% IN DRINKING WATER FOR 78 WK (STUDY DURATION: 86 WK), Dose: 0, 0.25, 1% IN DRINKING WATER FOR 78 WK (STUDY DURATION: 86 WK), Tumor Site: Type of Lesion: LIVER: ADENOMA", "value": "active; positive"}, {"measurement": "carcinogen call", "setting": "Species: MOUSE, Strain/Sex: B6C3F1/MALE, Route: ORAL, Dose: 0, 0.125, 0.5% IN DRINKING WATER FOR 78 WK (STUDY DURATION: 86 WK), Dose: 0, 0.125, 0.5% IN DRINKING WATER FOR 78 WK (STUDY DURATION: 86 WK), Tumor Site: Type of Lesion: LIVER: ADENOMA", "value": "active; positive"}, {"measurement": "carcinogen call", "setting": "Species: RAT, Strain/Sex: F344/MALE, Route: ORAL, Dose: 0.4% IN DRINKING WATER FOR 72 WK (STUDY DURATION: 83 WK)", "value": "inactive; negative"}, {"measurement": "carcinogen call", "setting": "Species: RAT, Strain/Sex: WISTAR/FEMALE, Route: ORAL, Dose: 0, 1000, 3000 PPM IN DIET FOR 24 MO (STUDY DURATION: 30 MO), Dose: 0, 1000, 3000 PPM IN DIET FOR 24 MO (STUDY DURATION: 30 MO)", "value": "inactive; negative"}, {"measurement": "carcinogen call", "setting": "Species: RAT, Strain/Sex: WISTAR/MALE, Route: ORAL, Dose: 0, 1000, 3000 PPM IN DIET FOR 24 MO (STUDY DURATION: 30 MO), Dose: 0, 1000, 3000 PPM IN DIET FOR 24 MO (STUDY DURATION: 30 MO)", "value": "inactive; negative"}]}, {"smiles": "CN(C)CCN(Cc1ccccc1)c1ccccn1", "values": [{"measurement": "carcinogen call", "setting": "Species: RAT, Strain/Sex: SPRAGUE-DAWLEY/FEMALE, Route: ORAL, Dose: 0, 500, 1000 PPM IN DRINKING WATER 5D/WK FOR LIFE (STUDY DURATION: 493-754 D), Dose: 0, 500, 1000 PPM IN DRINKING WATER 5D/WK FOR LIFE (STUDY DURATION: 493-754 D)", "value": "inactive; negative"}, {"measurement": "carcinogen call", "setting": "Species: RAT, Strain/Sex: SPRAGUE-DAWLEY/MALE, Route: ORAL, Dose: 0, 500, 1000 PPM IN DRINKING WATER 5D/WK FOR LIFE (STUDY DURATION: 529-600 D), Dose: 0, 500, 1000 PPM IN DRINKING WATER 5D/WK FOR LIFE (STUDY DURATION: 529-600 D)", "value": "inactive; negative"}]}, {"smiles": "CCCCNC(=O)OCC#CI", "values": [{"measurement": "carcinogen call", "setting": "Species: Mouse, Strain/Sex: CD-1/Female (50/Group), Route: Oral, Dose: 0, 20, 50, 150 mg/kg/day of 97% 3-iodo-2-propynyl butyl carbamate in diet for 78 wk, study duration 78 wk, Dose: 0, 20, 50, 150 mg/kg/day of 97% 3-iodo-2-propynyl butyl carbamate in diet for 78 wk, study duration 78 wk", "value": "inactive; negative"}, {"measurement": "carcinogen call", "setting": "Species: Mouse, Strain/Sex: CD-1/Male (50/Group), Route: Oral, Dose: 0, 20, 50, 150 mg/kg/day of 97% 3-iodo-2-propynyl butyl carbamate in diet for 78 wk, study duration 78 wk, Dose: 0, 20, 50, 150 mg/kg/day of 97% 3-iodo-2-propynyl butyl carbamate in diet for 78 wk, study duration 78 wk", "value": "inactive; negative"}, {"measurement": "carcinogen call", "setting": "Species: Rat, Strain/Sex: Sprague-Dawley/Female (50/group), Route: Oral, Dose: 0, 20, 40, 80 mg/kg/day of 97% 3-iodo-2-propynyl butyl carbamate in diet for 104 wk, study duration 104 wk, Dose: 0, 20, 40, 80 mg/kg/day of 97% 3-iodo-2-propynyl butyl carbamate in diet for 104 wk, study duration 104 wk", "value": "inactive; negative"}, {"measurement": "carcinogen call", "setting": "Species: Rat, Strain/Sex: Sprague-Dawley/Male (50/group), Route: Oral, Dose: 0, 20, 40, 80 mg/kg/day of 97% 3-iodo-2-propynyl butyl carbamate in diet for 104 wk, study duration 104 wk, Dose: 0, 20, 40, 80 mg/kg/day of 97% 3-iodo-2-propynyl butyl carbamate in diet for 104 wk, study duration 104 wk", "value": "inactive; negative"}]}, {"smiles": "CC1(C)COC1=O", "values": [{"measurement": "carcinogen call", "setting": "Species: MOUSE, Strain/Sex: B6C3F1/FEMALE, Route: GAVAGE, Dose: 0, 75, 150 MG/KG, Dose: 0, 75, 150 MG/KG", "value": "inactive; negative"}, {"measurement": "carcinogen call", "setting": "Species: MOUSE, Strain/Sex: B6C3F1/MALE, Route: GAVAGE, Dose: 0, 75, 150 MG/KG, Dose: 0, 75, 150 MG/KG", "value": "inactive; negative"}, {"measurement": "carcinogen call", "setting": "Species: RAT, Strain/Sex: F344/FEMALE, Route: GAVAGE, Dose: 0, 150, 300 MG/KG, Dose: 0, 150, 300 MG/KG, Tumor Site: Type of Lesion: STOMACH: SQUAMOUS CELL PAPILLOMA OR SQUAMOUS CELL CARCINOMA, UTERUS: ENDOMETRIAL STROMAL POLYP", "value": "active; positive"}, {"measurement": "carcinogen call", "setting": "Species: RAT, Strain/Sex: F344/MALE, Route: GAVAGE, Dose: 0, 150, 300 MG/KG, Dose: 0, 150, 300 MG/KG, Tumor Site: Type of Lesion: STOMACH: SQUAMOUS CELL PAPILLOMA OR SQUAMOUS CELL CARCINOMA, TESTES: INTERSTITIAL CELL TUMOR", "value": "active; positive"}]}, {"smiles": "CCCCN(COC(C)=O)N=O", "values": [{"measurement": "carcinogen call", "setting": "Species: RAT, Strain/Sex: F344/FEMALE, Route: SUBCUTANEOUS, Dose: 6.6 MG/KG 1/WK FOR 10 WK, Tumor Site: Type of Lesion: INJECTION SITE: MALIGNANT FIBROUS HISTIOCYTOMA", "value": "active; positive"}, {"measurement": "carcinogen call", "setting": "Species: RAT, Strain/Sex: F344/MALE, Route: SUBCUTANEOUS, Dose: 6.6 MG/KG 1/WK FOR 10 WK, Tumor Site: Type of Lesion: INJECTION SITE: MALIGNANT FIBROUS HISTIOCYTOMA, LUNG: ADENOMA OR ADENOCARCINOMA OR SQUAMOUS CELL CARCINOMA", "value": "active; positive"}]}, {"smiles": "CCSC(=O)N(CC)C1CCCCC1", "values": [{"measurement": "carcinogen call", "setting": "Species: Mouse, Strain/Sex: C57 BL/10JfCD-1/Alpk/Female (50/group), Route: Oral, Dose: 0, 300, 1,000, 3,000 ppm of 98.1% pure cycloate in feed for 18 mo, Dose: 0, 300, 1,000, 3,000 ppm of 98.1% pure cycloate in feed for 18 mo", "value": "inactive; negative"}, {"measurement": "carcinogen call", "setting": "Species: Mouse, Strain/Sex: C57 BL/10JfCD-1/Alpk/Male (50/group), Route: Oral, Dose: 0, 300, 1,000, 3,000 ppm of 98.1% pure cycloate in feed for 18 mo, Dose: 0, 300, 1,000, 3,000 ppm of 98.1% pure cycloate in feed for 18 mo", "value": "inactive; negative"}]}, {"smiles": "COc1ccc([N+](=O)[O-])cc1N=Nc1c(O)c(C(=O)Nc2cccc([N+](=O)[O-])c2)cc2ccccc12", "values": [{"measurement": "carcinogen call", "setting": "Species: MOUSE, Strain/Sex: B6C3F1/FEMALE, Route: ORAL, Dose: 0, 10000, 25000, 50000 PPM IN DIET FOR 720 D (STUDY DURATION: 104 WK), Dose: 0, 10000, 25000, 50000 PPM IN DIET FOR 720 D (STUDY DURATION: 104 WK)", "value": "inactive; negative"}, {"measurement": "carcinogen call", "setting": "Species: MOUSE, Strain/Sex: B6C3F1/MALE, Route: ORAL, Dose: 0, 10000, 25000, 50000 PPM IN DIET FOR 720 D (STUDY DURATION: 104 WK), Dose: 0, 10000, 25000, 50000 PPM IN DIET FOR 720 D (STUDY DURATION: 104 WK)", "value": "inactive; negative"}, {"measurement": "carcinogen call", "setting": "Species: RAT, Strain/Sex: F344/FEMALE, Route: ORAL, Dose: 0, 10000, 25000, 50000 PPM IN DIET FOR 720 D (STUDY DURATION: 105 WK), Dose: 0, 10000, 25000, 50000 PPM IN DIET FOR 720 D (STUDY DURATION: 105 WK)", "value": "inactive; negative"}, {"measurement": "carcinogen call", "setting": "Species: RAT, Strain/Sex: F344/MALE, Route: ORAL, Dose: 0, 10000, 25000, 50000 PPM IN DIET FOR 103 WK (STUDY DURATION: 105 WK), Dose: 0, 10000, 25000, 50000 PPM IN DIET FOR 103 WK (STUDY DURATION: 105 WK), Tumor Site: Type of Lesion: KIDNEY: RENAL TUBULE ADENOMA OR CARCINOMA, MULTIPLE ORGANS: MONONUCLEAR CELL LEUKEMIA", "value": "equivocal"}]}]}
